Entries after “also recorded” stand apart in the source; their conditions may differ.
Legend:
[1] = system: neuroblastoma (SK-N-BE(2)) xenograft; test: Tumor volume in neuroblastoma xenograft in NMRI nude mice; type: in vivo, human; settings: bortezomib + HNG i.p., until day 13
[2] = system: FVB mice; test: Bone mineral density by dual energy X-ray absorptiometry in FVB mice; type: in vivo; settings: HNG 1 μg/mice/day for four weeks, vs vehicle
Experimental: Areal bone mineral density (BMD; BMC/cm^2) and BMC were measured by dual energy X-ray absorptiometry (DXA) using the Lunar PIXImus mouse densitometer (Wipro GE Healthcare, Madison, Wisc.). Ex vivo measurements were taken from FVB mice treated with Dexa and HNG for four weeks (for details see methods and materials). The measurements of left femur and tibia were performed on excised bones placed on a 1-cm-thick Plexiglas™ table. All bones compared were measured in the same scan (high-resolution scan with line spacing set at 0.01 cm). n=9-10/animals/group.
In the light of the above findings where it was observed rescuing effects of HNG (S14G) on bone growth both in vitro and in vivo, it was analyzed whether HNG (S14G) has the capacity to regulate BMD. […] Trabecular BMD in tibia (mg/cm^3) of four-week old FVB mice treated for 4 weeks was measured by using DEXA (see protocol in material and methods).

[3] = system: fetal rat metatarsal bones; test: Longitudinal growth of cultured fetal rat metatarsal bones; type: cell-based
Experimental: The three middle metatarsal bone rudiments were dissected out from the paws of 20-day-old embryos (E20) (De Luca, Barnes et al. 2001). After dissection, bones were transferred to 24-well plates, one bone per well and cultured in 0.5 ml phenol-red MEM medium supplemented with 0.2% endotoxin-free fraction BSA, […] β-glycerophosphate, 0.05 mg/ml ascorbic acid and 100 μg/ml penicillin/streptomycin at 37° C. under 5% CO2 in humidified atmosphere. Medium was changed every 2-3 days. Images were captured at days 0, 2, 5, 7, 9 and 12 of culture, using a Hamamatsu C4742-95 digital camera mounted on a Nikon SMZ-U microscope. The Image-Pro plus™ (Media Cybernetics, USA) software was used to measure longitudinal growth. Metatarsal bone growth is expressed as a percentage of the length at the day of dissection (regarded as day 0). Treatment with CT (bortezomib), dexamethasone and/or HNG (S14G) was started 2-4 hours after dissection. All isolated bones were pooled and then randomly divided into the different treatment groups (4 to 6 bones per group). Each experiment was repeated at least 3 times.
The data shown in FIG. 2A indicates novel growth promoting/protective effects of humanin analog HNG (S14G) on longitudinal bone growth in cultured fetal rat metatarsal bones. […] Briefly, fetal rat metatarsal bones were pre-treated with different concentrations (mentioned in the figure) of HNG (S14G), 30 min prior to addition of Dexa. […] (n=4-6 bones/group)
CT (bortezomib) is a cytotoxic drug known to cause critical alterations in cells/tissues and disturb the cellular homeostasis. To test the effect of CT (bortezomib) on chondocytes and longitudinal bone growth, the established in vitro model of fetal rat metatarsal bones was used. These bones were collected as described in material and methods, cultured and treated with different concentrations of CT (bortezomib) under sterile conditions for up to 12 days. […] Apoptosis was analyzed in whole growth plate sections of 12-day cultured rat metatarsal bones (perichondrium excluded) by applying the TUNEL technique to detect DNA fragmentation.
In an attempt to block and prevent the negative effects on growth after CT (bortezomib)-treatment, recently discovered humanin analog HNG (S14G) was tested in vitro in fetal rat metatarsal bones.

[4] = system: IL-6; test: IL-6 ELISA in culture medium of LPS-treated ATDC5 chondrocytes; type: cell-based, mice; settings: LPS 10 μg/ml 24 hrs; combined Dexa and HNG (10 nM)
Experimental: Mice chondrocyte cell line ATDC5 (1×10^6), was cultured in DMEM/Ham's F12 (Invitrogen) supplemented with 5% FCS, 10 μg/ml human transferrin and 3×10^−8 M (30 nM) sodium selenite until confluent (day 6), as previously reported (Owen, Miner et al. 2007). Thereafter, differentiation was induced by the addition of insulin (10 μg/ml; Sigma) and ascorbic acid (20 μg/ml) to the maintenance medium (differentiation medium). Incubation was at 37° C. in a humidified atmosphere of 95% air/5% CO2. The culture medium was changed every second day. On day 6, lipopolysacharide (LPS) 10 μg/ml […] Dexa (1 μM) and HNG (10 nM, S14G) were added in DMEM/Ham's F12 only and cells were incubated further 24 hrs. Next day, the cell culture medium was collected and analyzed for Intraleukin-6 (IL-6) cytokine levels by using commercially available ELISA kit (R&D Systems, Minneapolis, Minn.) according to instructions provided from manufacturer.
FIG. 2C. […] Therefore, ATDC5 chondrocytes (mice) were cultured and treated with lipopolysacharide (LPS, 10 μg/ml) for 24 hrs to induce inflammation.

[5] = system: FVB mice; test: Dexa-induced growth retardation in FVB mice (tibia length, nose to anus length); type: in vivo; settings: HNG 1 μg/mice/day i.p. prior to Dexa 20 μg/mice/day; for rescue from Dexa-induced growth retardation (nose to anus length): 4 weeks
Experimental: Four weeks old female mice FVB strain were obtained from Charles-River, Germany. The mice were kept in animal facility under a 12-h light, 12-h dark schedule with water ad libitum. After an adaptation period, mice were injected with Dexa dissolved in saline (20 μg/mice) subcutaneously in the neck every day for 1 week (short-term). Whereas, HNG (S14G) dissolved in saline (1 μg/mice) was injected intraperitoneally, 45 minutes prior to Dexa injection. The vehicle group received saline only. After one week of treatment/injections, animals were sacrificed and the back legs (femur and tibia) were collected. The skin and muscle from the tibia was removed and final length of tibia was measured by using electronic digital caliper as reported previously (Zaman, Menendez-Benito et al. 2007).
In another study, four weeks old female mice FVB strain (Charles-river, Germany) were injected with Dexa dissolved in saline (20 μg/mice) subcutaneously in the neck every day for four week (long-term). Whereas, HNG (S14G) dissolved in saline (1 μg/mice) was injected intraperitoneally, 45 minutes prior to Dexa injection. The vehicle group received saline only. The total body length (nose to anus) was measured (centimeters, cm) manually (blinded, the cadges were coded on the day of measurment), every week. After 4 weeks of treatment, animals were sacrificed by inhalation of CO2, tissue samples (both left and right leg) were collected for subsequent analysis.
HNG injections were given […] prior to Dexa injections. […] After this, we next asked whether HNG (S14G) has any protective effects on bone growth after long-term treatment with Dexa (FIG. 3A). To investigate this, we treated mice for 4 weeks (group 2) with Dexa (20 μg/mice/day) and HNG (1 μg/mice/day). […] In FIG. 3B, total growth of the animals, nose to anus length (cm, manually) was analyzed in vehicle, Dexa, HNG (S14G) and Dexa/HNG (S14G) treated animals after four weeks of injections. **p<0.01 by 1-way ANOVA analyses, n=9-10/animals/group).

Substance: S14G-HN (MAPRGFSCLLLLTGEIDLPVKRRA) [HNG (S14G)]
- interference with anti-cancer effect of bortezomib (tumor volume) [1]: does not interfere with the anti-cancer effect
- trabecular BMD in tibia [2]: trend towards increased BMD
- bone growth by itself ([3]; HNG alone, 100 nM, day 12, vs control): improved bone growth by itself; also recorded: trend to promote bone growth on its own
- rescue of the growth of bones ([3]; HNG in combination with 25 nM bortezomib, p<0.001): up to 50%
- rescue of growth impairment ([3]; HNG with bortezomib 50 nM and above): not able to rescue the growth impairment
- rescue from Dexa-induced growth retardation ([3]; different doses of HNG added 30 min prior to Dexa 1 μM): significantly rescued the bones from Dexa-induced growth retardation
- effect on the anti-inflammatory effect of Dexa (IL-6 levels) [4]: did not alter the anti-inflammatory effects of Dexa
- rescue from Dexa-induced growth retardation (tibia length) ([5]; 1 week): protected mice from Dexa-induced growth retardation; also recorded: rescued mice from Dexa-induced growth retardation
- rescue from Dexa-induced growth retardation (nose to anus length) [5]: completely rescued mice from Dexa-induced growth retardation
- rescue from Dexa-induced growth retardation (nose to anus length) ([5]; listed as HNG (314G)): protected mice from Dexa-induced growth retardation

Source: patent US20130053323A1, “METHODS AND USE RELATED TO HUMANIN AND HUMANIN-LIKE PEPTIDES” (priority 2009, published 2013)
